In patent publication US20190076507A1, “Artificial Red Blood Cell Having Ability to Inhibit Conversion of Hemoglobin into Methemoglobin” (Public University Corporation Nara Medical University, priority 2016, published 2019):

Assays:
Assay type in all cases: biochemical
[1] = SOD (pseudo SOD) activity, pyrogallol method; conditions: for SOD / SOD pseudo activity (in words): Examples 1 and 7; for pseudo SOD: Table 1, pyrogallol, absorbance at 420 nm, Hb form and antioxidant conc. per entry
Experimental: (§1) The activity of NADH-cytochrome b5 reductase in the above-mentioned purified and concentrated HbCO solution was determined as NADH-ferricyanide reductase activity according to Beutler, E. above. Diluted Hb samples comprising the enzyme to be measured is mixed with a buffer comprising NADH. The mixed solutions were left standing for 10 minutes at 30° C., and then potassium ferricyanide (K3Fe (CN)6), the enzyme substrate, was added to start the enzyme reaction. The decrease of difference of absorbance at 340 nm, a characteristic absorption of NADH, per minute was measured to determine activity unit E (IU/gHb). […] It was reasoned that the heat-labile NADH-cytochrome b5 reductase was eliminated as denatured and insoluble, or denatured and inactivated, due to the introduction of heat treatment during the purifying step. In addition, activities of NADPH metHb reductase and NADPH diaphorase, which correspond to NADPH-flavin reductase are also determined by the above-mentioned methods according to Beutler, E. Diluted blood samples comprising the enzyme to be measured is mixed with a buffer comprising NADPH. The mixed solutions were left standing for 10 minutes at 37° C., and then methylene bleu (MeBl), the enzyme substrate, was added to start the enzyme reaction. The decrease of difference of absorbance at 340 nm, a characteristic absorption of NADPH, per minute was measured to determine activity unit E (IU/gHb). […] Catalase activity of the purified HbCO solution was determined from the change of the absorbance at 230 nm, the absorption wavelength of H2O2, according to Beutler, E. (RED CELL METABOLISM: A MANUAL OF BIOCHEMICAL METHOD, Grune &Stratton, Inc. pp. 105-106 (1987)). […] Pyrogallol was used for measurement of SOD activity (Marklund, S. and Marklund, G., Eur. J. Biochem. 47, 469-474 (1974); Roth, E. F. Jr. and Gilbert, H. S., Anal. Biochem. 137, 50-53(1984)). Pyrogallol is oxidized with oxygen to generate superoxide, and further reacted to generate a yellow dye with absorbance at 420 nm. SOD inhibits this reaction. SOD enzyme activity was determined based on this inhibitory activity. Analyzed specimens were solutions of purified HbO2, HbCO, metHb and solutions thereof further comprising NADH or L-tyrosine In addition, enzyme activity of crude SFHb solution was also determined as a control. […] When NADH and HbO2 were coexisted, however, high CAT and SOD pseudo activities (Table 1). […] The pseudo activity was detected when NADH alone was present, however, the activity was about a tenth ( 1/10) compared with when HbO2 was coexisted. […] There were results showing that this pseudo activity increased as more NADH was added.

[2] = Catalase (pseudo CAT) activity from change of absorbance at 230 nm of H2O2; conditions: for catalase / CAT pseudo activity (in words): Examples 1 and 7; for pseudo CAT: Table 1, NADH without Hb, calculated relative to Hb conc. of 1.5 mM (10 g/dL)
Experimental: as §1

HbO2 = target: T1, HbO2 (Homo sapiens, UniProt P68871+P69905); assay: Screening of suppressing effect of compounds against autoxidation of HbO2; conditions: for metHb conversion (%): HbO2 10 g/dL, antioxidant 1 g/dL, 37° C., 24 hours
T1 construct: The Hb released by hemolysis was filtered and collected, with the red blood cell membrane components (stroma) separated and removed; from tissue; host or cells: human red blood cells (expired donated blood); heat-treated, nanofiltered, purified and concentrated HbCO, photoconverted to HbO2
Experimental: NADH was purchased from Oriental Yeast Co. Ltd., and all the rest were purchased from Sigma-Aldrich (St. Louis, Mo., USA). HbCO solution was transferred to an eggplant flask and irradiated with visible light (halogen lamp; LPL Videeoligtvl-302, LPLCO. Ltd., Tokyo, Japan) under oxygen gas flow to convert to HbO2. […] The conversion ratios to metHb were determined from the visible absorption spectrum. The measurement of spectrum between 300 nm to 500 nm was conducted using a spectrophotometer (V-660, Japan Spectroscopic Company (JASCO)) mounted with a device to control the light scattering to the minimum (an integrating sphere). The atmosphere inside of a Thunberg cuvette was replaced with nitrogen gas and the conversion ratios to metHb were determined from the ratios of absorbance at 405 nm (λmax of metHb) and 430 nm (λmax of deoxyHb).

T1 sequence (P69905 2-142 limits assumed): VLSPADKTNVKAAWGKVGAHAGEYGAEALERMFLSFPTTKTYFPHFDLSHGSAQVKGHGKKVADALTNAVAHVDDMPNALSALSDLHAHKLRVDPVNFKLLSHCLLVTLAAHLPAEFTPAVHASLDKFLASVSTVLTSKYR
T1 sequence (P68871 2-147 limits assumed): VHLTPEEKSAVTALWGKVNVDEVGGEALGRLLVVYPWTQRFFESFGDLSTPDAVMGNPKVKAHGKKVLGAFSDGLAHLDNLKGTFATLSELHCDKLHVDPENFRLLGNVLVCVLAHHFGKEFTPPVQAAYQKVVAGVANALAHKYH

Compound | metHb conversion (%) (HbO2) | further results
13: oxyhemoglobin 1.5 mM prepared from the purified Hb solution, no antioxidant [Entry 13] |  | SOD / SOD pseudo activity (in words) [1]: no enzyme activity was found; catalase / CAT pseudo activity (in words) [2]: no enzyme activity was found
14: methemoglobin 1.5 mM prepared from the purified Hb solution, no antioxidant [Entry 14] |  | SOD / SOD pseudo activity (in words) [1]: no enzyme activity was found; catalase / CAT pseudo activity (in words) [2]: no enzyme activity was found
15: carbonyl Hb 1.5 mM prepared from the purified Hb solution, no antioxidant [Entry 15] |  | SOD / SOD pseudo activity (in words) [1]: no enzyme activity was found; catalase / CAT pseudo activity (in words) [2]: no enzyme activity was found
Nc1ncnc2c1ncn2[C@@H]1O[C@H](COP(=O)(O)OP(=O)(O)OP(=O)(O)O)[C@@H](O)[C@H]1O [ATP] | 44 | 
O=C[C@H](O)[C@@H](O)[C@H](O)[C@H](O)CO [D-glucose] | 36 | 
NC(=O)C1=CN([C@@H]2O[C@H](COP(=O)(O)OP(=O)(O)OC[C@H]3O[C@@H](n4cnc5c(N)ncnc54)[C@H](O)[C@@H]3O)[C@@H](O)[C@H]2O)C=CC1 [Entry 10, NADH] |  | pseudo SOD [1]: 1.1 × 10^2 U/g Hb; pseudo CAT [2]: 3.6 × 10^4 *) IU/g Hb
NC(=O)C1=CN([C@@H]2O[C@H](COP(=O)(O)OP(=O)(O)OC[C@H]3O[C@@H](n4cnc5c(N)ncnc54)[C@H](O)[C@@H]3O)[C@@H](O)[C@H]2O)C=CC1 [Entry 11, NADH] |  | pseudo SOD [1]: 1.3 × 10^2 U/g Hb; pseudo CAT [2]: 4.1 × 10^4 *) IU/g Hb
NC(=O)C1=CN([C@@H]2O[C@H](COP(=O)(O)OP(=O)(O)OC[C@H]3O[C@@H](n4cnc5c(N)ncnc54)[C@H](O)[C@@H]3O)[C@@H](O)[C@H]2O)C=CC1 [Entry 12, NADH] |  | pseudo SOD [1]: 0.6 × 10^2 U/g Hb; pseudo CAT [2]: 19.2 × 10^4 *) IU/g Hb
N=C(N)NCCC[C@H](N)C(=O)O [L-arginine] | 38 | 
NC(=O)C[C@H](N)C(=O)O [L-asparagine] | 40 | 
N[C@@H](CS)C(=O)O [L-cysteine] | 34 | 
NC(=O)CC[C@H](N)C(=O)O [L-glutamine] | 43 | 
N[C@@H](Cc1c[nH]cn1)C(=O)O [L-histidine] | 32 | 
NCCCC[C@H](N)C(=O)O [L-lysine] | 34 | 
CSCC[C@H](N)C(=O)O [L-methionine] | 41 | 
N[C@@H](Cc1c[nH]c2ccccc12)C(=O)O [L-tryptophan] | 38 | 
N[C@@H](Cc1ccc(O)cc1)C(=O)O [L-tyrosine] | 38 | 
NC(=O)C1=CN([C@@H]2O[C@H](COP(=O)(O)OP(=O)(O)OC[C@H]3O[C@@H](n4cnc5c(N)ncnc54)[C@H](OP(=O)(O)O)[C@@H]3O)[C@@H](O)[C@H]2O)C=CC1 [NADPH, nicotinamide adenine dinucleotide phosphate (NADPH)] | 37 | effect to suppress metHb conversion compared with NADH (HbO2; coexisting with HbO2 at 37° C. for 26 hours): inferior to that of NADH
CC1=C(/C=C/C(C)=C/C=C/C(C)=C/C=C/C=C(C)/C=C/C=C(C)/C=C/C2=C(C)C(=O)[C@@H](O)CC2(C)C)C(C)(C)C[C@H](O)C1=O [astaxanthin] | 39 | 
OCC(O)CO [glycerol] | 38 | 
NC(=O)c1cccnc1 [nicotinamide] | 34 | 
O=c1c(O)c(-c2ccc(O)c(O)c2)oc2cc(O)cc(O)c12 [quercetin] | 42 | 
O=C1O[C@H]([C@@H](O)CO)C([O-])=C1O.[Na+] [sodium L-Ascorbate] | 37 | 
O=C([O-])[C@H](O)[C@@H](O)[C@H](O)[C@H](O)CO.[Na+] [sodium gluconate] | 49 | 
